Source: US6060604A, “Pharmaceutical compounds comprising polyamines substituted with electron-affinic groups” (priority 1996, dated 2000)

Experiments:
[1] = test system: Chinese hamster ovary (CHO) cells; assay: in vitro radiosensitization of hypoxic CHO cells, colony formation (Table 1); assay type: cell-based; conditions: drug dose 0.5 mM
Experimental: Cells were plated and allowed to attach on glass petri dishes for 3 h, then the media was replaced with 5 ml of Hank's balanced salt solution (HBSS) with or without drugs. To induce cell hypoxia, the dishes were placed at room temperature into sealed aluminum chambers (8 dishes/chamber). […] This procedure was repeated 4 times with 5 min holding periods under positive gas pressure between evacuations. After 1 h, when the cells were severely hypoxic, the chambers were placed in 37° C. water bath for 1 hr. For oxic treatment groups, cells were placed in 37° C. incubators for 2 h with 5 ml of HBSS (±drugs). The chambers were placed on a rotating table and exposed to an X-ray beam generated by a General Electric Maxitron 300 therapy machine operated at 250 kVp and 20 mA (HVL 20 mm Al filter; dose rate at 2 Gy/min). After irradiation, cells were rinsed with HBSS, and covered with fresh media. Cells were cultured for 7 days in a 37° C. incubator. The resulting cell colonies were stained and counted.

CHO cells = assay: radiosensitization potency on hypoxic CHO cells at 20% survival, single X ray dose 8 Gy (Table 2); assay type: cell-based, Chinese hamster; conditions: Cricetulus griseus, CHO; hypoxic, single X ray dose of 8 Gy; read-out: drug molarity required to reduce cell survival to 20% of the untreated control value
Experimental: Cells were plated and allowed to attach on glass petri dishes for 3 h, then the media was replaced with 5 ml of Hank's balanced salt solution (HBSS) with or without drugs. To induce cell hypoxia, the dishes were placed at room temperature into sealed aluminum chambers (8 dishes/chamber). The chambers were degassed by pumping, and then back-filled with 95% N2 and 5% CO2. This procedure was repeated 4 times with 5 min holding periods under positive gas pressure between evacuations. After 1 h, when the cells were severely hypoxic, the chambers were placed in 37° C. water bath for 1 hr. For oxic treatment groups, cells were placed in 37° C. incubators for 2 h with 5 ml of HBSS (±drugs). The chambers were placed on a rotating table and exposed to an X-ray beam generated by a General Electric Maxitron 300 therapy machine operated at 250 kVp and 20 mA (HVL 20 mm Al filter; dose rate at 2 Gy/min). After irradiation, cells were rinsed with HBSS, and covered with fresh media. Cells were cultured for 7 days in a 37° C. incubator. The resulting cell colonies were stained and counted.
In the experiment shown in Table 2 hypoxic CHO cells were irradiated with a single X ray dose of 8 Gy, with or without drugs.

[2] = in vitro toxicity on hypoxic CHO cells, colony formation; assay type: cell-based, Chinese hamster; conditions: hamster, cho cells, 10 mM, 12 hours at 37° C., read-out: reduction in colony formation
Experimental: Subsequently, hypoxic CHO cells were incubated with 0.2 mM DATM or 10 mM metro for 12 hours at 37° C.

hypoxic CHO cells = assay: radiosensitizing hypoxic CHO cells, drugs given 2 hours at 4° C.; assay type: cell-based, Chinese hamster
mice = conditions: reported value for metro; cited from earlier work
[3] = test system: viral infections; cutaneous inflammation; eye disorders; conditions: cited from earlier work
in vivo = conditions: mouse, po
[4] = cited from earlier work

For Cc1ncc([N+](=O)[O-])n1CCO [metronidazole, 1-(2-hydroxyethyl)-2-methyl-5-nitroimidazole], the Do [1] was 3.3 Gy, the IC80 (CHO cells) was 10 mM and the cytotoxicity at 12 h, 10000 µM [2] was 95%. For the same molecule, the “radiosensitizing effectiveness, 0.2 mM DATM vs 10 mM metro” value (hypoxic CHO cells) was “equally effective”, the LD50 (mice) was “about 3.3 g/kg” and the “treatment of cutaneous inflammation due to dermatosis such as eczema, ulcers, acne, and rosacea” value [3] was “effective”. For the same molecule, the “treatment of eye disorders such as blepharoconjunctivitis and meibomian gland dysfunctions” value [3] was “effective”, the “treatment of viral infections such as measles, herpes, and viral diverticulitis” value [3] was “effective” and the LD50 (in vivo) was about 4000 mg/kg. For the same molecule, the “toxicity at therapeutic levels” value ([4]; as radiosensitizers) was “highly toxic at therapeutic levels” and the photosensitization ([4]; dermatological use) was “photosensitizer”.
